Measured values reported in patent US20100074884A1, “INHIBITION OF NEURONAL DAMAGE” (DUSKA SCIENTIFIC CO., priority 2005, published 2010).

Columns and labels:
RGCs [1] = test: Application of ATP or P2X7 agonist to isolated rat retinas, RGC damage; assay type: cell-based
Excerpt: (§1) Adult animals were decapitated and the retinas quickly dissected, flattened onto nitrocellulose filters, and maintained in oxygenated ACSF. Individual RGCs were labeled by shooting 1.3 μm tungsten particles coated with Oregon Green 488 conjugated dextran (Molecular Probes, Inc., Eugene, Oreg.) into the retina using a gene gun (Bio-Rad Laboratories, Hercules, Calif.; Kettunen, et al. (2002) J. Neurosci. Methods 119:37-43). Individual RGCs were imaged by placing the retinas in oxygenated ACSF within a custom-made 4 ml observation chamber on the stage of a Zeiss Axioplan fluorescence microscope equipped with a black and white CCD camera (Chroma DTA, Pisa, Italy). Observations were performed at room temperature (25-28° C.). A 40× Olympus immersion objective (N.A. 0.80) was used and excitation light was kept below 10% of its maximum intensity. Less than 5 RGCs per retina were analyzed to minimize light exposure. Loss of membrane integrity was assessed by adding 1.5 μM PI to the ACSF for 1 minute. Exposure of phospatidylserine on the outer membrane leaflet was evidenced by a 20 minute incubation in ACSF containing 3 μg/ml Cy3-Annexin V. In some experiments, RGCs were preincubated with oxidized-ATP (oATP) for 2 hours or with Brilliant BlueG (BBG) for 30 minutes prior to imaging.
Incubation of isolated rat retinas in 1 mM ATP induced the same effects obtained with repeated pressure increments, causing cell blebbing and uptake of PI in all the RGCs tested (35/35 tested) within 1 hour, except in α-type RGCs (0/15). The same effects were obtained applying the potent P2X7 receptor agonist 2′,3′-benzoyl-4-benzoyl-ATP (BzATP; 0.1 mM; 10/10 non-α-RGCs).

RGCs [2] = test: Prevention of ATP-induced RGC damage in isolated rat retinas by P2X blockers; assay type: cell-based; settings: 2 hour preincubation in ACSF containing 300 μM oATP or 0.5 μM BBG
Excerpt: as §1, with “In some experiments, RGCs were preincubated with oxidized-ATP (oATP) for 2 hours or with Brilliant BlueG (BBG) for 30 minutes prior to imaging.” left out
Incubation of isolated rat retinas in 1 mM ATP induced the same effects obtained with repeated pressure increments, causing cell blebbing and uptake of PI in all the RGCs tested (35/35 tested) within 1 hour, except in α-type RGCs (0/15). […]

RGCs [3] = test: Pressure-induced RGC damage in isolated rat retinas (pressure controlled incubation, imaging of living RGCs); assay type: cell-based; settings: for signs of pressure induced RGC damage: 7×90 (7 one-minute pulses at 90 mm Hg, then 1 hour at 12 mm Hg), 30 U/ml apyrase, 300 μM oATP or 0.5 μM BBG
Description: Pressure controlled incubation: A free-standing bioreactor chamber was used for incubation of living retinas (e.g., rat retinas) in artificial cerebrospinal fluid (ACFS; Stacy et al. (2003) J. Comp. Neurol. 456:154-166) under controlled temperature (33±0.5° C.; pH 7.4±0.1), and hydrostatic pressure conditions (10-90 mm Hg, resolution 2 mm Hg; Previti, et al. (2002) IEEE-EMBS Special Topic conference on Molecular, Cellular and Tissue Engineering, 1:157-158). Rat retinas were allowed to stabilize at 12 mm Hg for 5 minutes, and 1 minute pressure increments were applied, reaching a peak value in less than 20 seconds. Consecutive pressure transients were separated by 1 minute at 12 mm Hg. Hydrostatic pressure and pH were regulated by electronically controlled air/CO2 admission in the incubator chamber.
Imaging living RGCs: Experiments were performed on Long Evans rats according to the ARVO and national regulation on animal experimentation. All chemicals were obtained from Sigma (St. Louis, Mo.) unless otherwise specified.
as §1
RGC were incubated with the following agents: 30 U/ml apyrase (an enzyme that degrades extracellular ATP; North, supra); 300 μM oATP (an irreversible blocker of P2X receptors; North, supra); or 0.5 μM BBG (a selective and reversible inhibitor of rat P2X7 receptors; North, supra).

RGCs [4] = test: Pressure transients in vivo, PI staining of cells in the ganglion cell layer; set-up: species or system rat; settings: apyrase 30 U/ml intraocularly 5 minutes before pressure; 2 minutes at 50 mm Hg; retinas isolated after one hour
Description: Pressure transients in vivo: Adult Long Evans rats were deeply anaesthetized by intraperitoneal injection with Avertine (10 ml/kg body weight, 3.3% tri-bromo-ethanol, 2% tertiary amyl-alcohol in saline) and their right eyes were incannulated with a 30 Gauge needle connected to a pressure apparatus, which was a column of ACSF held at appropriate height. Eye pressure was increased to 50 mm Hg for 2 minutes by switching on the connection between the needle and the column of ACSF. A piezo-resistive pressure sensor (RS Electronics) controlled pressure values and line tightness. […] After pressure application, the animals were returned to their cages for recovery. Retinas were isolated after one hour. Control eyes were incannulated, but no pressure transient was applied. To analyze the effects of blocking eATP in vivo, 2 μl apyrase (30 U/ml intraocular concentration) were injected intraocularly 5 minutes before pressure application. To evaluate cell damage, PI labeled cells were imaged across the retinal area in 10 evenly spaced (370×250 μm^2) sample fields per retina. This dye permits assessment of membrane integrity, as cells with reduced membrane integrity are permeable to and become stained with the dyes. Retina dissection, histological and immunocytochemical treatments for long term analysis were performed as described (Galli-Resta et al. (1997) J. Neurosci. 17:7831-7838). […]

RGC light response = test: Extracellular electrophysiological recordings in the optic tract, RGC light response after IOP transient; assay type: in vivo, rat
Description: Extracellular electrophysiological recordings: Experimental procedures for extracellular electrophysiological recordings are as described (Caleo et al. (2003) J. Neurosci. 23(1):287-296.). Briefly, rats aged between P25 and P30 were anesthetized with urethane (20% solution in saline; 0.7 ml/100 g of body weight, i.p.; Sigma) and placed in a stereotaxic frame. Both eyes were fixed by means of adjustable metal rings surrounding the external portion of the eye bulb. Body temperature was continuously monitored and maintained at 37° C. by a thermostat-controlled electric blanket. […]
Experiments were conducted to determine (1) whether intraocular injection of apyrase had any deleterious effects on RGC firing activity and light response, and (2) whether intraocular injection of apyrase had any effect on RGC light response recovery following a transient IOP elevation in vivo. Multi-unit spike activity evoked by a light flash was recorded in the optic tract at five minute intervals before and after an IOP pulse at 90 mmHg for 1 minute. […] Quantifying response as the average firing rate in the interval 0-2 seconds after flash onset, the average maximal response decrement was 80±16%; N=15, and the average time needed to recover at least 85% of the initial response was 32±4 minutes after the IOP spike. […]

[5] = two hours after ATP application

In the case of `Nc1ncnc2c1ncn2[C@@H]1O[C@H](COP(=O)(O)OP(=O)(O)OP(=O)(O)O)[C@@H](O)[C@H]1O` [ATP, adenosine 5′-triphosphate], the “cell blebbing and uptake of PI, affected/tested RGCs” value (RGCs [1]; 1 mM ATP, within 1 hour, RGCs other than α-type) was 35/35, the “cell blebbing and uptake of PI, affected/tested α-type RGCs” value (RGCs [1]; 1 mM ATP, within 1 hour, α-type RGCs) was 0/15 and the “cell soma shrinkage or fragmentation, RGCs” value (RGCs [1]; [5]) was 10/10. For the same compound, the “phosphatidylserine exposure on the external membrane (Annexin V binding), RGCs” value (RGCs [1]; [5]) was 7/7.

In the case of `Nc1ncnc2c1ncn2[C@@H](C=O)O[C@@H](C=O)COP(=O)(O)OP(=O)(O)OP(=O)(O)O` [oATP, oxidized-ATP], the “ATP-induced RGC damage, damaged/tested non-α-RGCs” value (RGCs [2]) was 0/20 and the “signs of pressure induced RGC damage” value (RGCs [3]) was “prevented all signs of pressure induced RGC damage”.

In the case of `Nc1ncnc2c1ncn2[C@@H]1O[C@H](COP(=O)(O)OP(=O)(O)OP(=O)(O)O)[C@@H](OC(=O)c2ccc(C(=O)c3ccccc3)cc2)[C@H]1O` [BzATP, 2′,3′-benzoyl-4-benzoyl-ATP], the “cell blebbing and uptake of PI, affected/tested non-α-RGCs” value (RGCs [1]; 0.1 mM BzATP) was 10/10.

apyrase was tested, and the “signs of pressure induced RGC damage” value (RGCs [3]) was “prevented all signs of pressure induced RGC damage”, the “blebbing or permeability to PI when pressure applied” value (RGCs [3]; in the presence of apyrase 30 U/ml) was “no blebbing or permeability to PI was observed” and the “pressure-induced RGC damage in vivo (PI staining)” value (RGCs [4]) was “totally prevented”. The “spike activity before pressure application” value (RGC light response; apyrase 30 U/ml intraocularly) was “not significantly altering” and the “average response recovery-time (at least 85% of initial response)” value (RGC light response; apyrase 30 U/ml intraocularly 1-3 hours before IOP pulse at 90 mmHg for 1 minute, N=8) was 11.2 ± 2.6 min.

`CCOc1ccc(Nc2ccc(/C(=C3C=C/C(=[N+](/CC)Cc4cccc(S(=O)(=O)[O-])c4)C=C/3C)c3ccc(N(CC)Cc4cccc(S(=O)(=O)O)c4)cc3C)cc2)cc1` [BBG, Brilliant BlueG] was tested, and the “ATP-induced RGC damage, damaged/tested non-α-RGCs” value (RGCs [2]) was 0/15 and the “signs of pressure induced RGC damage” value (RGCs [3]) was “prevented all signs of pressure induced RGC damage”.
